This passage reports IC50 results from US10723711B2, “1,1,1-trifluoro-3-hydroxypropan-2-yl carbamate derivatives and 1,1,1-trifluoro-4-hydroxybutan-2-yl carbamate derivatives as MAGL inhibitors” (PFIZER INC., priority 2015, dated 2020).

By pIC50 is commonly meant the negative decadic logarithm of the IC50, by convention in mol/L.

This experiment concerns the target T1, human recombinant Monoacylglycerol Lipase (Homo sapiens, UniProt Q99685).
T1 sequence (Q99685 1-303): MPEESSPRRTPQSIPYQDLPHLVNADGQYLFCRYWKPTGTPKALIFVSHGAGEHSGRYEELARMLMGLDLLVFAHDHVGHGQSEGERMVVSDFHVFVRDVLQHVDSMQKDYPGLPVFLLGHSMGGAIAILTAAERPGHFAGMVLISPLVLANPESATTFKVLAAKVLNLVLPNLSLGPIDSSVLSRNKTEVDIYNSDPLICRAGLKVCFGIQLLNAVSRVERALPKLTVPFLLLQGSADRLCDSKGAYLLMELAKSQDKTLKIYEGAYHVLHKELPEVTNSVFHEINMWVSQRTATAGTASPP
Nature of the experiment: MAGL inhibition enzymatic assay, fluorogenic substrate 7-HCA, IC50 at T=0 min or after 30 minute incubation (T=30 min). The format is biochemical. As to conditions: geometric mean of 2-4 determinations unless otherwise indicated. The method, then: An equal volume of 7-HCA in assay buffer with 10% DMSO was added either immediately (T=0 min) or after a 30 minute incubation (T=30 min) to initiate the reaction. […] After these dilutions, the final concentration of the test compound ranged from 3 μM to 0.03 nM. […] IC50 values were generated based on a four parameter fit model using ABASE software from IDBS.

Setting [1] is: T = 0 min (substrate added immediately), read-out: MAGL (T = 0 min) IC50.
Where [2] appears, read: T = 30 min (30 minute incubation), read-out: MAGL (T = 30 min) IC50.

Structures are written as SMILES. pIC50: −log10 of the molar value. Counter-ions that a name gives are not always drawn. Like-named read-outs stand apart in the source and are kept apart here.

With `O=C(O[C@H](CO)C(F)(F)F)N1CCC2(CCCN(Cc3ccc(F)cc3)C2)CC1` [Example 41], the pIC50 is, setting by setting: under setting [1], 5.80; under setting [2], 6.78.
`C#Cc1ccc(-n2ccc([C@H]3[C@@H]4CN(C(=O)O[C@@H](CO)C(F)(F)F)C[C@@H]43)n2)cc1` [Example 82]: the pIC50 under setting [1] was below 5.56 and the pIC50 under setting [2] is 6.22.
As for `O=C(O[C@H](CO)C(F)(F)F)N1CCC(O)(CN(Cc2ccc(F)cc2)C2CCOCC2)CC1` [Example 46], the pIC50 is 6.25 under setting [1] and 7.34 under setting [2].
Turning to `O=C(O[C@H](CO)C(F)(F)F)N1CCC2(CC1)CN(S(=O)(=O)C1CCOCC1)CCO2` [Example 49], the pIC50 under setting [1] is below 5.52 and the pIC50 under setting [2] is 6.18.
With `O=C(O[C@H](CO)C(F)(F)F)N1CCC2(CC1)CC(Oc1ccccn1)CO2` (single isomer, unassigned) [Example 129], the pIC50 under setting [1] is below 5.52 and the pIC50 under setting [2] was 6.32.
Turning to `O=C(OC(CO)C(F)(F)F)N1CCC(c2ccn(C3CCOCC3)n2)CC1` (stereo not drawn) [Example 38, 1,1,1-trifluoro-3-hydroxypropan-2-yl 4-[1-(tetrahydro-2H-pyran-4-yl)-1H-pyrazol-3-yl]piperidine-1-carboxylate], the pIC50 was 5.83 under setting [1] and 7.11 under setting [2].
Consider `O=C(O[C@H](CO)C(F)(F)F)N1CCC2(CC1)CC(Nc1ccccn1)CO2` (stereo partly drawn) [Example 27, (2R)-1,1,1-Trifluoro-3-hydroxypropan-2-yl 3-(pyridin-2-ylamino)-1-oxa-8-azaspiro[4.5]decane-8-carboxylate], for which the pIC50 was 6.32 under setting [1] and 7.37 under setting [2].
For the compound `CCC1CN(S(=O)(=O)c2ccc(F)cc2)CC2(CCN(C(=O)O[C@H](CO)C(F)(F)F)CC2)O1` (stereo partly drawn) [Example 18, (2R)-1,1,1-Trifluoro-3-hydroxypropan-2-yl 2-ethyl-4-[(4-fluorophenyl)sulfonyl]-1-oxa-4,9-diazaspiro[5.5]undecane-9-carboxylate], the negative-log IC50 (pIC50) reads like this: under setting [1], 6.28; under setting [2], 7.31.
The corresponding values for `O=C(OC(C(F)(F)F)C(F)(F)CO)N1CCC2(CC1)CN(S(=O)(=O)c1ccc(F)cc1)CCO2` (single isomer, unassigned; ent-2) [Example 21, 1,1,1,3,3-Pentafluoro-4-hydroxybutan-2-yl 4-[(4-fluorophenyl)sulfonyl]-1-oxa-4,9-diazaspiro[5.5]undecane-9-carboxylate, ENT-2] are 6.22 and 7.28.
On to `Cn1nccc1-c1cccc(OC2CCN(C(=O)O[C@H](CO)C(F)(F)F)CC2)n1` [Example 65], for which the pIC50 is, setting by setting: under setting [1], 6.44; under setting [2], 7.52.
As for `O=C(O[C@H](CO)C(F)(F)F)N1CCC2(CC1)CN(S(=O)(=O)N1CCOCC1)CCO2` [Example 22, (2R)-1,1,1-Trifluoro-3-hydroxypropan-2-yl 4-(morpholin-4-ylsulfonyl)-1-oxa-4,9-diazaspiro[5.5]undecane-9-carboxylate], the pIC50 is, setting by setting: under setting [1], 5.58; under setting [2], 6.72.
For `O=C(O[C@H](CO)C(F)(F)F)N1CCC2(CC1)CCN(C(=O)c1ccccn1)C2` [Example 128], the pIC50 by setting is: under setting [1], 6.37; under setting [2], 7.30.
For `Cc1cnc(OC2CCN(C(=O)O[C@H](CO)C(F)(F)F)CC2)nc1-c1ccnn1C` [Example 58], in that order: 6.60 and 7.48.
For the compound `O=C(O[C@H](COP(=O)(O)O)C(F)(F)F)N1CCC2(CC1)CN(S(=O)(=O)c1ccc(F)cc1)CCO2` [Example 33, (2R)-3,3,3-Trifluoro-2-[({4-[(4-fluorophenyl)sulfonyl]-1-oxa-4,9-diazaspiro[5.5]undec-9-yl}carbonyl)oxy]propyl phosphate, (bis)-L-lysine salt], the pIC50 under setting [1] was below 5.52 and the negative-log IC50 (pIC50) under setting [2] was below 5.52.
On to `CN(C)CCOP(=O)(O)OC[C@@H](OC(=O)N1CCC2(CC1)CN(S(=O)(=O)c1ccc(F)cc1)CCO2)C(F)(F)F` (mixture of isomers) [Example 89], for which the pIC50 reads like this: under setting [1], below 5.52; under setting [2], below 5.52.
For the compound `Cn1nccc1-c1ccnc(OC2CCN(C(=O)O[C@H](CO)C(F)(F)F)CC2)c1` [Example 64], the pIC50 under setting [1] was 6.26 and the pIC50 under setting [2] is 7.38.
Turning to `O=C(O[C@H](CO)C(F)(F)F)N1C[C@@H]2CN(c3cc(C4CC4)ccn3)C[C@@H]2C1` [Example 48], the pIC50 was below 5.52 under setting [1] and 6.03 under setting [2].
For `CC1N(S(=O)(=O)c2ccc(F)cc2)CCOC12CCN(C(=O)O[C@H](CO)C(F)(F)F)CC2` (single isomer, unassigned) [Example 70], in that order: 6.18 and 7.16.
The corresponding values for `O=C(O[C@H](CO)C(F)(F)F)N1C2CCC1CN(Cc1ccc(F)cc1)C2` [Example 23, (2R)-1,1,1-Trifluoro-3-hydroxypropan-2-yl 3-(4-fluorobenzyl)-3,8-diazabicyclo[3.2.1]octane-8-carboxylate] are below 5.82 and 7.11.
With `CCOP(=O)(OCC)OC[C@@H](OC(=O)N1CCC2(CC1)CN(S(=O)(=O)c1ccc(F)cc1)CCO2)C(F)(F)F` [Example 88], the pIC50 was below 5.52 under setting [1] and below 5.52 under setting [2].
Take `O=C(O[C@H](CO)C(F)(F)F)N1CCC2(CC1)CN(S(=O)(=O)CCc1ccccn1)CCO2` [Example 55]: the pIC50 by setting is: under setting [1], 6.35; under setting [2], 7.37.
As to `O=C(O[C@H](CO)C(F)(F)F)N1CCC(CN(Cc2ccc(F)cc2)C2CCOCC2)CC1` [Example 50], the pIC50 is 6.07 under setting [1] and 7.15 under setting [2].
As for `O=C(O[C@H](CO)C(F)(F)F)N1CCC(Oc2ccc(CO)cn2)CC1` [Example 75], the pIC50 was 6.16 under setting [1] and 7.10 under setting [2].
For `CN(C(=O)c1ccccn1)[C@H]1COC2(CCN(C(=O)O[C@H](CO)C(F)(F)F)CC2)C1` [Example 146], the pIC50 was 6.27 under setting [1] and 7.32 under setting [2].
Turning to `O=C(O[C@H](CO)C(F)(F)F)N1CCC2(CC1)CC(c1cccnc1)CO2` (mixture of isomers) [Example 122], the pIC50 was 6.41 under setting [1] and 7.49 under setting [2].
On to `O=C(O[C@H](CO)C(F)(F)F)N1CCC2(CC1)CN(c1ccc(F)cn1)CCO2` [Example 14, (2R)-1,1,1-Trifluoro-3-hydroxypropan-2-yl 4-(5-fluoropyridin-2-yl)-1-oxa-4,9-diazaspiro[5.5]undecane-9-carboxylate], for which the negative-log IC50 (pIC50) under setting [1] is 6.31 and the pIC50 under setting [2] was 7.35.
The corresponding values for `O=C(O[C@H](CO)C(F)(F)F)N1CCC2(CC1)CC(n1cccn1)CO2` (single isomer, unassigned) [Example 104] are 5.73 and 6.80.
For `O=C(O[C@H](CO)C(F)(F)F)N1CCC2(CC1)CN(Cc1ccc(F)cc1)C(=O)O2` [Example 72], in that order: 6.66 and 7.55.
With `O=C(O[C@H](CO)C(F)(F)F)N1CCC(O)(CNS(=O)(=O)c2ccccc2)CC1` [Example 16, (2R)-1,1,1-Trifluoro-3-hydroxypropan-2-yl 4-hydroxy-4-{[(phenylsulfonyl)amino]methyl}piperidine-1-carboxylate], the negative-log IC50 (pIC50) under setting [1] is 5.74 and the pIC50 under setting [2] is 6.79.
For `CN(C1COC2(CCN(C(=O)O[C@H](CO)C(F)(F)F)CC2)C1)S(=O)(=O)C1CCOCC1` (single isomer, unassigned) [Example 117], in that order: 5.71 and 6.82.
On to `O=C(O[C@H](CO)C(F)(F)F)N1CCC2(CC1)CN(S(=O)(=O)CCCn1ccnc1)CCO2` [Example 56], for which the pIC50 runs as follows: under setting [1], 5.63; under setting [2], 6.78.
On to `CN([C@H]1COC2(CCN(C(=O)O[C@H](COP(=O)(O)O)C(F)(F)F)CC2)C1)S(=O)(=O)c1ccccc1` [Example 30, (2R)-3,3,3-Trifluoro-2-[({(3R)-3-[methyl(phenylsulfonyl)amino]-1-oxa-8-azaspiro[4.5]dec-8-yl}carbonyl)oxy]propyl phosphate, disodium salt], for which the pIC50 under setting [1] is below 5.52 and the pIC50 under setting [2] was 6.26.
Consider `Cc1cnc(N2CCOC3(CCN(C(=O)O[C@H](CO)C(F)(F)F)CC3)C2)nc1` [Example 76], for which the pIC50 is 6.18 under setting [1] and 7.08 under setting [2].
On to `O=C(O[C@H](CO)C(F)(F)F)N1CCC2(CC1)CN(S(=O)(=O)NCc1ccccn1)CCO2` [Example 74], for which the negative-log IC50 (pIC50) is, setting by setting: under setting [1], 6.41; under setting [2], 7.28.
For the compound `CN(C1COC2(CCN(C(=O)O[C@H](CO)C(F)(F)F)CC2)C1)S(=O)(=O)C1CCOCC1` (single isomer, unassigned) [Example 116], the pIC50 under setting [1] was 6.01 and the pIC50 under setting [2] was 7.08.
As to `O=C(O[C@H](CO)C(F)(F)F)N1CCC2(CC1)CN(CC1CCCOC1)CCO2` (single isomer, unassigned) [Example 5], the pIC50 is, setting by setting: under setting [1], 5.77; under setting [2], 6.79.
Take `C[N+](C)(C)CCOP(=O)([O-])OC[C@@H](OC(=O)N1CCC2(CC1)CN(S(=O)(=O)c1ccc(F)cc1)CCO2)C(F)(F)F` [Example 90]: the pIC50 is, setting by setting: under setting [1], below 5.52; under setting [2], below 5.52.
With `CN(C1COC2(CCN(C(=O)OC(COP(=O)(O)O)C(F)(F)F)CC2)C1)S(=O)(=O)c1ccccc1` (stereo not drawn) [Example 148], the pIC50 was below 5.52 under setting [1] and below 5.91 under setting [2].
Regarding `O=C(OC(CO)C(F)(F)F)N1CCC(c2ccnc(N3CCOCC3)n2)CC1` (stereo not drawn) [Example 35], the pIC50 is 6.47 under setting [1] and 7.49 under setting [2].
